In US10617680B2 (CELGENE QUANTICEL RESEARCH, INC., priority 2017, dated 2020):
pIC50: −log10 of the molar value. Where two headings read alike, the source gives them in different places.

Target: CBP (Homo sapiens (Human), UniProt Q92793)
Assay: In vitro CBP inhibition (AlphaScreen, biotinylated H4-tetraacetyl peptide)
Format: binding
In short: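 His-tagged CBP expressed in E. coli (50 nM final) incubated with biotinylated H4K5/8/12/16(Ac) peptide (20 nM final) in 50 mM HEPES pH 7.3, 10 mM NaCl, 0.25 mM TCEP, 0.1% BSA, 0.005% Brij-35, 0.4% DMSO, 20 min at room temp.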

[1] = AlphaScreen, Table 29, read-out: CBP IC50

Sequence of CBP (Q92793 1081-1197): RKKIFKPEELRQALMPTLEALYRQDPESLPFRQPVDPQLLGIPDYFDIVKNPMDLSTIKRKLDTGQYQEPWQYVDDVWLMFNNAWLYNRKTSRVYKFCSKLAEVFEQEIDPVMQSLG

pIC50 [1] | Compound | pIC50
> 6.30 | Cn1cc(-c2cnn(C3CCN(S(C)(=O)=O)CC3)c2)c(-c2ccccc2)cc1=O [Example 127, 1-methyl-5-(1-(1-(methyl-sulfonyl)-piperidin-4-yl)-1H-pyrazol-4-yl)-4-phenylpyridin-2(1H)-one] | –
> 6.30 | Cn1cc(-c2cnn(-c3ccccc3)c2)c(-c2ccccc2)cc1=O [Example 128, 1-methyl-4-phenyl-5-(1-phenyl-1H-pyrazol-4-yl) pyridin-2(1H)-one] | –
> 6.30 | Cn1cc(-c2cnn(CCN3CCOCC3)c2)c(-c2ccccc2)cc1=O [Example 130, 1-methyl-5-(1-(2-morpho-linoethyl)-1H-pyrazol-4-yl)-4-phenylpyridin-2(1H)-one] | –
> 6.30 | CCn1cc(-c2cn(C)c(=O)cc2-c2ccccc2)cn1 [Example 132, 5-(1-ethyl-1H-pyrazol-4-yl)-1-methyl-4-phenylpyridin-2(1H)-one] | –
> 6.30 | Cn1cc(-c2cn[nH]c2)c(-c2ccccc2)cc1=O [Example 133, 1-methyl-4-phenyl-5-(1H-pyrazol-4-yl)pyridin-2(1H)-one] | –
> 6.30 | Cc1nn(C)cc1-c1cn(C)c(=O)cc1-c1ccccc1 [Example 136, 5-(1,3-dimethyl-1H-pyrazol-4-yl)-1-methyl-4-phenylpyridin-2(1H)-one] | –
> 6.30 | CC(C)n1cc(-c2cn(C)c(=O)cc2-c2ccccc2)cn1 [Example 138, 5-(1-isopropyl-1H-pyrazol-4-yl)-1-methyl-4-phenylpyridin-2(1H)-one] | –
> 6.30 | COC(=O)Cn1cc(-c2cn(C)c(=O)cc2-c2ccccc2)cn1 [Example 140, methyl 2-(4-(1-methyl-6-oxo-4-phenyl-1,6-dihydropyridin-3-yl)-1H-pyrazol-1-yl)acetate] | –
> 6.30 | CCCNC(=O)Cn1cc(-c2cn(C)c(=O)cc2-c2ccccc2)cn1 [Example 141, 2-(4-(1-methyl-6-oxo-4-phenyl-1,6-dihydro-pyridin-3-yl)-1H-pyrazol-1-yl)-N-propylacetamide] | –
> 6.30 | Cn1cc(-c2cnn(CC3CC3)c2)c(-c2ccccc2)cc1=O [Example 146, 5-(1-(cyclopropyl-methyl)-1H-pyrazol-4-yl)-1-methyl-4-phenyl-pyridin-2(1H)-one] | –
> 6.30 | Cn1cc(-c2cnn(Cc3ccccc3)c2)c(-c2ccc(C(N)=O)cc2)cc1=O [Example 151, 4-(5-(1-benzyl-1H-pyrazol-4-yl)-1-methyl-2-oxo-1,2-dihydro-pyridin-4-yl)benzamide] | –
> 6.30 | Cn1cc(-c2cnn(Cc3ccccc3)c2)c(-c2ccc(C(=O)O)cc2)cc1=O [Example 155, 4-(5-(1-benzyl-1H-pyrazol-4-yl)-1-methyl-2-oxo-1,2-dihydropyridin-4-yl)benzoic acid] | –
> 6.30 | Cn1cc(-c2cnn(Cc3ccccc3)c2)c(-c2cnn(CC(N)=O)c2)cc1=O [Example 158, 2-(4-(5-(1-benzyl-1H-pyrazol-4-yl)-1-methyl-2-oxo-1,2-dihydro-pyridin-4-yl)-1H-pyrazol-1-yl)acetamide] | –
> 6.30 | Cn1cc(-c2cnn(Cc3ccccc3)c2)c(-c2cnn(CC(C)(C)O)c2)cc1=O [Example 161, 5-(1-benzyl-1H-pyrazol-4-yl)-4-(1-(2-hydroxy-2-methylpropyl)-1H-pyrazol-4-yl)-1-methyl-pyridin-2(1H)-one] | –
> 6.30 | Cn1cc(-c2cnn3c2CCC3)c(-c2ccccc2)cc1=O [Example 162, 5-(5,6-dihydro-4H-pyrrolo[1,2-b]pyrazol-3-yl)-1-methyl-4-phenylpyridin-2(1H)-one] | –
> 6.30 | CCSc1cc(=O)n(C)cc1-c1cnn(Cc2ccccc2)c1 [Example 168, 5-(1-Benzyl-1H-pyrazol-4-yl)-4-ethylsulfanyl-1-methyl-1H-pyridin-2-one] | –
> 6.30 | Cn1cc(-c2cnn(Cc3ccccc3)c2)c(SCC(=O)O)cc1=O [Example 169, [5-(1-Benzyl-1H-pyrazol-4-yl)-1-methyl-2-oxo-1,2-dihydro-pyridin-4-ylsulfanyl]-acetic acid] | –
> 6.30 | CCOc1cc(=O)n(C)cc1-c1cnn(CC2CC2(F)F)c1 (stereo not drawn) [Example 171, 5-[1-(2,2-Difluoro-cyclopropylmethyl)-1H-pyrazol-4-yl]-4-ethoxy-1-methyl-1H-pyridin-2-one] | –
> 6.30 | COc1cc(=O)n(C)cc1-c1cnn(C(C)c2ccccc2)c1 (stereo not drawn) [Example 175, 4-methoxy-1-methyl-5-(1-(1-phenylethyl)-1H-pyrazol-4-yl) pyridin-2(1H)-one] | –

The remaining lines, values behind:

Compound | pIC50 [1] | pIC50
Cn1cc(-c2cnn(Cc3ccccc3)c2)c(-c2ccccn2)cc1=O [Example 131, 5′-(1-benzyl-1H-pyrazol-4-yl)-1′-methyl-[2,4′-bipyridin]-2′(1′H)-one] | 5.30 to 6.30 | –
CN(C)C(=O)Cn1cc(-c2cn(C)c(=O)cc2-c2ccccc2)cn1 [Example 135, N,N-dimethyl-2-(4-(1-methyl-6-oxo-4-phenyl-1,6-dihydropyridin-3-yl)-1H-pyrazol-1-yl)acetamide] | > 6.30 | –
CC(C)Cn1cc(-c2cn(C)c(=O)cc2-c2ccccc2)cn1 [Example 137, 5-(1-isobutyl-1H-pyrazol-4-yl)-1-methyl-4-phenylpyridin-2(1H)-one] | > 6.30 | –
CCCn1cc(-c2cn(C)c(=O)cc2-c2ccccc2)cn1 [Example 139, 1-methyl-4-phenyl-5-(1-propyl-1H-pyrazol-4-yl)pyridin-2(1H)-one] | > 6.30 | –
Cn1cc(-c2cn(C)c(=O)cc2C2CCCC2)cn1 [Example 142, 4-cyclopentyl-1-methyl-5-(1-methyl-1H-pyrazol-4-yl) pyridin-2(1H)-one] | 5.30 to 6.30 | –
Cn1cc(-c2cn(C)c(=O)cc2C2CCCCC2)cn1 [Example 143, 4-cyclohexyl-1-methyl-5-(1-methyl-1H-pyrazol-4-yl)pyridin-2 (1H)-one] | 5.30 to 6.30 | –
Cn1cc(-c2cn(C)c(=O)cc2C2CC2)cn1 [Example 144, 4-cyclopropyl-1-methyl-5-(1-methyl-1H-pyrazol-4-yl) pyridin-2(1H)-one] | > 6.30 | –
Cc1nn(C)c(C)c1-c1cn(C)c(=O)cc1-c1ccccc1 [Example 145, 1-methyl-4-phenyl-5-(1,3,5-tri-methyl-1H-pyrazol-4-yl) pyridin-2(1H)-one] | 5.30 to 6.30 | –
Cn1cc(-c2cnn(Cc3ccccc3)c2)c(-c2ccc(F)cc2)cc1=O [Example 149, 5-(1-benzyl-1H-pyrazol-4-yl)-4-(4-fluorophenyl)-1-methyl-pyridin-2(1H)-one] | > 6.30 | –
Cn1cc(-c2cnn(Cc3ccccc3)c2)c(-c2ccc(C#N)cc2)cc1=O [Example 150, 4-(5-(1-benzyl-1H-pyrazol-4-yl)-1-methyl-2-oxo-1,2-dihydro-pyridin-4-yl)benzonitrile] | > 6.30 | –
Cn1cc(-c2cnn(Cc3ccccc3)c2)c(-c2cn[nH]c2)cc1=O [Example 152, 5-(1-benzyl-1H-pyrazol-4-yl)-1-methyl-4-(1H-pyrazol-4-yl) pyridin-2(1H)-one] | > 6.30 | –
Cn1cc(-c2cnn(CC3CC3)c2)c(-c2ccc(Cl)cc2)cc1=O [Example 153, 4-(4-chloro-phenyl)-5-(1-cyclopropylmethyl-1H-pyrazol-4-yl)-1-methyl-1H-pyridin-2-one] | > 6.30 | –
Cn1cc(-c2cnn(CC3CC3)c2)c(-c2ccc(C#N)cc2)cc1=O [Example 156, 4-[5-(1-cyclopropyl-methyl-1H-pyrazol-4-yl)-1-methyl-2-oxo-1,2-dihydro-pyridin-4-yl]-benzonitrile] | – | 5.30 to 6.30
Cn1cc(-c2cnn(Cc3ccccc3)c2)c(-c2cnn(C(F)F)c2)cc1=O [Example 160, 5-(1-benzyl-1H-pyrazol-4-yl)-4-(1-(difluoromethyl)-1H-pyrazol-4-yl)-1-methylpyridin-2(1H)-one] | > 6.30 | –
Cn1cc(-c2cnn(Cc3ccccc3)c2)c(-c2cnn(CC#N)c2)cc1=O [Example 163, 2-(4-(5-(1-benzyl-1H-pyrazol-4-yl)-1-methyl-2-oxo-1,2-dihydropyridin-4-yl)-1H-pyrazol-1-yl)acetonitrile] | > 6.30 | –
Cc1c(-c2cn(C)c(=O)cc2-c2ccccc2)cnn1C [Example 164, 5-(1,5-dimethyl-1H-pyrazol-4-yl)-1-methyl-4-phenylpyridin-2(1H)-one] | 5.30 to 6.30 | –
CCCOc1cc(=O)n(C)cc1-c1cnn(Cc2ccccc2)c1 [Example 165, 5-(1-Benzyl-1H-pyrazol-4-yl)-1-methyl-4-propoxy-1H-pyridin-2-one] | > 6.30 | –
Cn1cc(-c2cnn(Cc3ccccc3)c2)c(OCCC(=O)O)cc1=O [Example 166, 3-[5-(1-Benzyl-1H-pyrazol-4-yl)-1-methyl-2-oxo-1,2-dihydro-pyridin-4-yloxy]-propionic acid] | > 6.30 | –
Cn1cc(-c2cnn(Cc3ccccc3)c2)c(OCC#N)cc1=O [Example 167, [5-(1-Benzyl-1H-pyrazol-4-yl)-1-methyl-2-oxo-1,2-dihydro-pyridin-4-yloxy]-acetonitrile] | > 6.30 | –
CNOc1cc(=O)n(C)cc1-c1cnn(Cc2ccccc2)c1 [Example 170, 5-(1-benzyl-1H-pyrazol-4-yl)-1-methyl-4-((methylamino)oxy)pyridin-2(1H)-one] | > 6.30 | –
CNS(=O)(=O)C1CCN(c2cc(=O)n(C)cc2-c2cnn(Cc3ccccc3)c2)C1 (stereo not drawn) [Example 172, 1-(5-(1-benzyl-1H-pyrazol-4-yl)-1-methyl-2-oxo-1,2-dihydropyridin-4-yl)-N-methylpyrrolidine-3-sulfonamide] | > 6.30 | –
Cn1cc(-c2cnn(Cc3ccccc3)c2)c(N2CC[C@@H](NS(=O)(=O)C(F)(F)F)C2)cc1=O [Example 173, (R)-N-(1-(5-(1-benzyl-1H-pyrazol-4-yl)-1-methyl-2-oxo-1,2-dihydropyridin-4-yl)pyrrolidin-3-yl)-1,1,1-trifluoromethanesulfonamide] | 5.30 to 6.30 | –
Cn1cc(-c2cnn(Cc3ccccc3)c2)c(N2CC[C@@H](NS(C)(=O)=O)C2)cc1=O [Example 174, (R)-N-(1-(5-(1-benzyl-1H-pyrazol-4-yl)-1-methyl-2-oxo-1,2-dihydropyridin-4-yl)pyrrolidin-3-yl)methanesulfonamide] | 5.30 to 6.30 | –
